This note sets out measurements from patent US20220411381A1, “PYRIMIDINEDIONE DERIVATIVES” (Bayer Aktiengesellschaft, priority 2019, published 2022).

SMILES strings stand for the structures. pIC50: −log10 of the molar value. Where two headings read alike, the source gives them in different places.

For assay [1], the target named is T1, recombinant human BCAT1 enzyme (Homo sapiens, UniProt P54687).
T1 construct: purchased ATGen (South Korea) ATGP1479
T1 sequence (P54687 1-386): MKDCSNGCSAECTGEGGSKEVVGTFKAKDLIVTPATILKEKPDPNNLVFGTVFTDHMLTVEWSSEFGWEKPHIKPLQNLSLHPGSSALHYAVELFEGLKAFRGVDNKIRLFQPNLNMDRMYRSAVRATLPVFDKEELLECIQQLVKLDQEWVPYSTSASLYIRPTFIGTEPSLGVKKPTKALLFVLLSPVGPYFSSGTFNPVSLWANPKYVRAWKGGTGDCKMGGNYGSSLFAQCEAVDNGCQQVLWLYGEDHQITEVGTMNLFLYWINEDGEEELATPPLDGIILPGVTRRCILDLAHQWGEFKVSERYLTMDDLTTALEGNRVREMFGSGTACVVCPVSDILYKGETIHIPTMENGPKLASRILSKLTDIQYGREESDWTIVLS
Kind of assay: In vitro assay 1a: BCAT1 biochemical assay (coupled LeuDH/NADH fluorescence readout). The settings on record: for IC50: BCAT1 IC50 [M]; for pIC50: recombinant human BCAT1 […], 32° C., 100 μM leucine, 50 μM α-ketoglutarate, NADH fluorescence over 90 min, read-out: BCAT1 IC50. The method, then:
(§1) In Vitro Assay 1a and 1b: BCAT1 and BCAT2 Biochemical Assay
(§2) BOAT (Branched chain amino acid transferase) catalyzes transamination of the branched chain amino acid leucine to α-ketoisocaproate (KIC). The BOAT enzymatic reaction was measured in a coupled readout with leucine dehydrogenase (LeuDH) which catalyzes the Nicotinamide adenine dinucleotide (NADH) dependent reduction of KIC to leucine. NADH consumption is measured by fluorescent readout.
(§3) The biochemical reactions were performed at 32° C. in 384-well plates using a reaction volume of 51 μl and the following assay buffer conditions: 50 mM HEPES (2-[4-(2-hydroxyethyl)piperazin-1-yl]ethanesulfonic acid) pH 8.0, 50 mM aqueous solution of ammonium sulfate, 1 mM ethylenediaminetetraacetic acid, 2 mM dithiothreitol, 0.01% bovine serum albumine, 0.005% Brij 35 detergent, 0.5 μM PLP (pyridoxalphosphate), 10 μM NADH, and 50 μM α-ketoglutarate), and 100 μM leucine. […] Test compounds were used in a concentration range between 0.005 and 30 μM. The final DMSO concentration was 2%.
(§4) The reaction was initiated by addition of substrates (Leucine, α-KG, NADH).

The next assay concerns MDA-MB231 cells. In words: In vitro assay 2: BCAT cellular assay, leucine in medium of MDA-MB231 cells. The format is cell-based. The settings on record: 24 hours incubation, leucine level in medium (LeuDH/diaphorase/resazurin readout), read-out: MDAMB-231 IC50. On the procedure: In Vitro Assay 2: BCAT Cellular Assay
Levels of leucine were measured in medium of different tumor cell lines. The enzyme BOAT (Branched chain amino acid transferase) catalyzes the consumption of leucine.
Cells (U87-MG and MDA-MB231 from ATCC) were grown in Dulbecco's Modified Eagle Medium (DMEM) containing 10% fetal calf serum. They were harvested by trypsin and seeded into 96-well plates. Cells were incubated overnight at 37° C. in an atmosphere containing 5% carbon dioxide. The next day test compounds were added to each cell well. The final concentration of dimethylsulfoxide (DMSO) was 0.1% and DMSO controls were included. The plates were then placed in an incubator for 24 hours.
Leucine was measured in an enzymatic readout with leucine dehydrogenase (LeuDH) and diaphorase. Medium is deproteinized with perchloric acid. 30 μl of 1 M aqueous perchloric acid was added to each well and the plates were centrifuged.
A general note: The colour change of resazurin is a common sign of viable cells or microbes.

In assay [2] the target is T2, recombinant human BCAT2 enzyme (Homo sapiens, UniProt O15382).
T2 construct: purchased ATGen (South Korea) ATGP1523
T2 sequence (O15382 28-392): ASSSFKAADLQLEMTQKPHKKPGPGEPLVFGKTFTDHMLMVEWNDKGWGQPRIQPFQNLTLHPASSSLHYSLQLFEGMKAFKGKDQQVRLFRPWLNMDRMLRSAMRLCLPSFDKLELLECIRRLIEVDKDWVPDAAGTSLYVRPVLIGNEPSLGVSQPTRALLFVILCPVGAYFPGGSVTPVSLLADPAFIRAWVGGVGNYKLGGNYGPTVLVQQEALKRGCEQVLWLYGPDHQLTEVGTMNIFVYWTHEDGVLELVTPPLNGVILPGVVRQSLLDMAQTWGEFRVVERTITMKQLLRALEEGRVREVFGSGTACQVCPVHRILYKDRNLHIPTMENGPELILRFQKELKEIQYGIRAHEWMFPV
Kind of assay: In vitro assay 1b: BCAT2 biochemical assay (coupled LeuDH/NADH fluorescence readout). As to BCAT2 IC50 [M]: recombinant human BCAT2 0.75 nM. The settings on record: for pIC50: recombinant human BCAT2 […], 32° C., 100 μM leucine, 50 μM α-ketoglutarate, NADH fluorescence over 90 min, read-out: BCAT2 IC50. On the procedure:
as §1, §2, §3, §4

One may read the IC50 as the concentration that inhibits the measured activity by half. By pIC50 is commonly meant the negative decadic logarithm of the IC50, by convention in mol/L. With `COc1cc(C#N)c(Oc2ccccc2C)cc1-n1c(=O)cc(C(F)(F)F)[nH]c1=O` (single isomer, unassigned) [Example 6, 4-[2,6-Dioxo-4-(trifluoromethyl)-3,6-dihydropyrimidin-1 (2H)-yl]-5-methoxy-2-(2-methylphenoxy)benzonitrile (atrop 2)], the half-maximal inhibitory concentration (IC50) in assay [1] is 6.25e-07 M. Besides, the pIC50 in the assay with MDA-MB231 cells was less than 4.52.

Regarding `Cc1ccccc1Oc1cc(-n2c(=O)cc(S(=O)(=O)c3ccccc3)[nH]c2=O)c(F)cc1C#N` [Example 74, 4-[4-(Benzenesulfonyl)-2,6-dioxo-3,6-dihydropyrimidin-1(2H)-yl]-5-fluoro-2-(2-methylphenoxy)benzonitrile], the negative logarithm of the IC50 (pIC50) in the assay on MDA-MB231 cells was 4.52; in the assay on MDA-MB231 cells (Homo sapiens, MDA-MB-231, 24 h), less than 4.52.

Regarding `COc1cc(C#N)c(Oc2ccccc2C)cc1-n1c(=O)cc(C(F)(F)F)[nH]c1=O` (racemic) [Example 4, 4-[2,6-Dioxo-4-(trifluoromethyl)-3,6-dihydropyrimidin-1(2H)-yl]-5-methoxy-2-(2-methylphenoxy)benzonitrile (rac)], the IC50 in assay [1] was 1.62e-07 M. In addition, the pIC50 with MDA-MB231 cells (Homo sapiens, MDA-MB-231, 24 h) is less than 4.52.

With `Cc1cccc(C)c1Oc1cc(-n2c(=O)cc(C(F)(F)F)[nH]c2=O)ccc1C#N` [Example 48, 2-(2,6-Dimethylphenoxy)-4-[2,6-dioxo-4-(trifluoromethyl)-3,6-dihydropyrimidin-1 (2H)-yl]benzonitrile], the pIC50 in assay [1] is 6.16; in assay [2], 5.38; in the assay on MDA-MB231 cells (Homo sapiens, MDA-MB-231, 24 h) it was 4.60.

Take `N#Cc1cc(F)c(-n2c(=O)cc(C(F)(F)F)[nH]c2=O)cc1Oc1c(F)cccc1F` [Example 63, 2-(2,6-Difluorophenoxy)-4-[2,6-dioxo-4-(trifluoromethyl)-3,6-dihydropyrimidin-1 (2H)-yl]-5-fluorobenzonitrile]: the negative logarithm of the IC50 (pIC50) with MDA-MB231 cells (Homo sapiens, MDA-MB-231, 24 h) was less than 4.52.

`COc1cc(Cl)c(Oc2ccccc2C)cc1-n1c(=O)cc(C(F)(F)F)[nH]c1=O` (racemic) [Example 27, 3-[4-Chloro-2-methoxy-5-(2-methylphenoxy)phenyl]-6-(trifluoromethyl)pyrimidine-2,4(1H,3H)-dione (rac)]: the negative logarithm of the IC50 (pIC50) is 6.36 in assay [1]; 5.36 in assay [2]; 4.70 with MDA-MB231 cells; less than 4.52 in the assay on MDA-MB231 cells (Homo sapiens, MDA-MB-231, 24 h).

Take `Cc1ccccc1Oc1cc(-n2c(=O)cc(C3CC3)[nH]c2=O)c(F)cc1C#N` [Example 72, 4-(4-Cyclopropyl-2,6-dioxo-3,6-dihydropyrimidin-1(2H)-yl)-5-fluoro-2-(2-methylphenoxy)benzonitrile]: the pIC50 was 5.70 in assay [1]; 4.60 in assay [2]; less than 4.52 in the assay with MDA-MB231 cells (Homo sapiens, MDA-MB-231, 24 h).

Turning to `COc1cc(C#N)c(Oc2ccccc2C)cc1-n1c(=O)cc(S(C)(=O)=O)[nH]c1=O` (racemic) [Example 79, 4-[4-(Methanesulfonyl)-2,6-dioxo-3,6-dihydropyrimidin-1(2H)-yl]-5-methoxy-2-(2-methylphenoxy)benzonitrile (rac)], the pIC50 in assay [1] is 6.15; in assay [2], 5.40; with MDA-MB231 cells (Homo sapiens, MDA-MB-231, 24 h), less than 4.52.

As to `COc1cc(C#N)c(Oc2ccccc2C)cc1-n1c(=O)cc(Br)[nH]c1=O` (single isomer, unassigned) [Example 20, 4-[4-Bromo-2,6-dioxo-3,6-dihydropyrimidin-1(2H)-yl]-5-methoxy-2-(2-methylphenoxy)benzonitrile (atrop 1)], the negative-log IC50 (pIC50) in assay [1] was 5.63; in assay [2], 4.64; in the assay with MDA-MB231 cells, 4.57.

For the molecule `COc1cc(C#N)c(Oc2ccccc2C)cc1-n1c(=O)cc(Br)[nH]c1=O` (racemic) [Example 19, 4-[4-Bromo-2,6-dioxo-3,6-dihydropyrimidin-1(2H)-yl]-5-methoxy-2-(2-methylphenoxy)benzonitrile (rac)], the negative-log IC50 (pIC50) was 6.70 in assay [1]; 5.46 in assay [2]; less than 4.52 with MDA-MB231 cells (Homo sapiens, MDA-MB-231, 24 h).

`Cc1cccc(N)c1Oc1cc(-n2c(=O)cc(C(F)(F)F)[nH]c2=O)c(F)cc1C#N` [Example 65, 2-(2-Amino-6-methylphenoxy)-4-[2,6-dioxo-4-(trifluoromethyl)-3,6-dihydropyrimidin-1(2H)-yl]-5-fluorobenzonitrile]: the negative-log IC50 (pIC50) was 6.30 in assay [1]; 5.26 in assay [2]; less than 4.52 with MDA-MB231 cells (Homo sapiens, MDA-MB-231, 24 h).

With `Cc1ccccc1Oc1cc(-n2c(=O)cc(C(F)(F)F)[nH]c2=O)cnc1C#N` [Example 47, 5-[2,6-Dioxo-4-(trifluoromethyl)-3,6-dihydropyrimidin-1(2H)-yl]-3-(2-methylphenoxy)pyridine-2-carbonitrile], the negative logarithm of the IC50 (pIC50) in assay [1] is 6.19; in assay [2], 5.49; with MDA-MB231 cells (Homo sapiens, MDA-MB-231, 24 h) it was less than 4.52.

`Cc1ccccc1Oc1cc(-n2c(=O)cc(C(F)(F)F)[nH]c2=O)c(C)cc1C#N` (racemic) [Example 7, 4-[2,6-Dioxo-4-(trifluoromethyl)-3,6-dihydropyrimidin-1(2H)-yl]-5-methyl-2-(2-methylphenoxy)benzonitrile (rac)]: the concentration for half-maximal inhibition (IC50) in assay [1] was 2.87e-07 M; in assay [2] (BCAT2 IC50 [M]) it was 1.8e-06 M. Besides, the pIC50 with MDA-MB231 cells was less than 4.52; in the assay on MDA-MB231 cells (Homo sapiens, MDA-MB-231, 24 h) it was 4.52.

Consider `COc1cc(C#N)c(Oc2ccccc2C)cc1-n1c(=O)cc(C2CC2)[nH]c1=O` (racemic) [Example 23, 4-(4-Cyclopropyl-2,6-dioxo-3,6-dihydropyrimidin-1(2H)-yl)-5-methoxy-2-(2-methylphenoxy)benzonitrile (rac)], for which the pIC50 in assay [1] was 6.74; in the assay on MDA-MB231 cells, less than 4.52; in the assay with MDA-MB231 cells (Homo sapiens, MDA-MB-231, 24 h) it was 4.52.

As for `Cc1ccccc1Oc1cc(-n2c(=O)cc(S(C)(=O)=O)[nH]c2=O)c(F)cc1C#N` [Example 75, 5-Fluoro-4-[4-(methanesulfonyl)-2,6-dioxo-3,6-dihydropyrimidin-1(2H)-yl]-2-(2-methylphenoxy)benzonitrile], the negative-log IC50 (pIC50) in assay [1] was 5.57; in assay [2] it was 4.80.

On to `COc1cc(C#N)c(Oc2ccccc2C)cc1-n1c(=O)cc(C(F)(F)Cl)[nH]c1=O` (racemic) [Example 25, 4-{4-[Chloro(difluoro)methyl]-2,6-dioxo-3,6-dihydropyrimidin-1(2H)-yl}-5-methoxy-2-(2-methylphenoxy)benzonitrile (rac)], for which the negative logarithm of the IC50 (pIC50) in assay [1] was 6.70; in assay [2] it was 5.89.

As for `COc1cc(C#N)c(Oc2ccccc2C)cc1-n1c(=O)cc(S(=O)(=O)c2ccccc2)[nH]c1=O` (racemic) [Example 76, 4-[4-(Benzenesulfonyl)-2,6-dioxo-3,6-dihydropyrimidin-1(2H)-yl]-5-methoxy-2-(2-methylphenoxy)benzonitrile (rac)], the pIC50 was 6.34 in assay [2]; 4.70 in the assay with MDA-MB231 cells; less than 4.52 in the assay on MDA-MB231 cells (Homo sapiens, MDA-MB-231, 24 h).

`Cc1cccc(C)c1Oc1cc(-n2c(=O)cc(C(F)(F)c3ccccc3)[nH]c2=O)c(F)cc1C#N` [Example 57, 4-{4-[Difluoro(phenyl)methyl]-2,6-dioxo-3,6-dihydropyrimidin-1(2H)-yl}-2-(2,6-dimethylphenoxy)-5-fluorobenzonitrile]: the pIC50 in assay [1] was 5.82; in assay [2] it was 5.30.
